Like-named read-outs stand apart in the source and are kept apart here.

Consider four molecules from patent US9452196B2, “Pharmaceutical composition for treating medical conditions and a method for treating alimentary disorders and related diseases” (SOCIEDADE BENEFICENTE DE SENHORAS HOSPITAL SIRIO LIBANES, priority 2009, dated 2016).

In data set [1] the test system is rats. The data set is described as follows: body weight and fat content after oral administration. It counts as in vivo, rat. Conditions: for Body Weight (% of Control) / Periepididymal Adipose Tissue Weight / Retroperitoneal Adipose Tissue Weight / Visceral Adipose Tissue Weight: rats.
A further data set concerns male Wistar rats. Briefly: fat content and body weight in male Wistar rats on 63-day diet. It counts as in vivo, rat. Particulars: once a day for three days.
Another data set has as its system 2A neural cells. The data set is described as follows: growth of neurites in 2A neural cells. It counts as cell-based. Conditions: FIG. 3D; for basal growth of neurites: substance alone.
In data set [2] the target is T1, alpha-2A adrenergic receptor (Homo sapiens, UniProt P08913).
T1 sequence (P08913 1-465): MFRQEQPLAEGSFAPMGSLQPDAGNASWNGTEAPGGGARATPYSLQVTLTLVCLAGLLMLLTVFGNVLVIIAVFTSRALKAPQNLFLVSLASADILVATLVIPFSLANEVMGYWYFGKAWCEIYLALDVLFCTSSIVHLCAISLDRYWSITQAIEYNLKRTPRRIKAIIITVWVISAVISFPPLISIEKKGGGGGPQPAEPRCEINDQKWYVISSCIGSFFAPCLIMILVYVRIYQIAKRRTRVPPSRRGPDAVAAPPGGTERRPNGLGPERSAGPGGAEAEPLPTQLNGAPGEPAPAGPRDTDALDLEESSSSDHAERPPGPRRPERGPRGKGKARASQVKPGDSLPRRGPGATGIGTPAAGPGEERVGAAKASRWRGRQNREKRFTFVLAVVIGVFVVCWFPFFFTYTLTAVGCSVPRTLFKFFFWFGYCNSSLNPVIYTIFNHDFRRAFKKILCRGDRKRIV
The data set is described as follows: recognition by conformation-sensitive receptor antibody. The class given is biochemical. From the text: (§1) Next the selectivity of hemopressin for CB1 receptors was examined using antibodies sensitive to the conformations of mu and delta opiod receptors, alpha-2A and beta-2 adrenergic receptors, as well as type 1 and 2 Angiotensin II receptors. In the following table, it is possible to identify the specificity of the peptide hemopressin for the CB1 receptor. […] The following data presents the percentage of activity as compared to the control group: […]

In data set [3] the target is beta-2 adrenergic receptor (Homo sapiens, UniProt P07550). The description is as above. The class given is biochemical.
Excerpt: as §1

Data set [4] deals with T2, type 2 Angiotensin II receptor (AT2) (Homo sapiens, UniProt P50052).
T2 sequence (P50052 1-363): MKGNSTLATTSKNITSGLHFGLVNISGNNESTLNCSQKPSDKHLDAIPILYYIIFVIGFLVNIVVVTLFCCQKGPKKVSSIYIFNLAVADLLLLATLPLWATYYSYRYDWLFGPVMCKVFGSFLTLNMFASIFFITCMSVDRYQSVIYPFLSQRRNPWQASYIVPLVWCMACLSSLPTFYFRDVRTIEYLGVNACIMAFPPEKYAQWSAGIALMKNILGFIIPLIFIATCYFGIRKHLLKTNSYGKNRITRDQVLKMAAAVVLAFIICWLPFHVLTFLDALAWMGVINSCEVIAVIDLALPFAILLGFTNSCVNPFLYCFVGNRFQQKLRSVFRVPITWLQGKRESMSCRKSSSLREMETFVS
The description is as above. The class given is biochemical.
Excerpt: as §1

For data set [5], the target named is T3, type 1 Angiotensin II receptor (AT1) (Homo sapiens, UniProt P30556).
T3 sequence (P30556 1-359): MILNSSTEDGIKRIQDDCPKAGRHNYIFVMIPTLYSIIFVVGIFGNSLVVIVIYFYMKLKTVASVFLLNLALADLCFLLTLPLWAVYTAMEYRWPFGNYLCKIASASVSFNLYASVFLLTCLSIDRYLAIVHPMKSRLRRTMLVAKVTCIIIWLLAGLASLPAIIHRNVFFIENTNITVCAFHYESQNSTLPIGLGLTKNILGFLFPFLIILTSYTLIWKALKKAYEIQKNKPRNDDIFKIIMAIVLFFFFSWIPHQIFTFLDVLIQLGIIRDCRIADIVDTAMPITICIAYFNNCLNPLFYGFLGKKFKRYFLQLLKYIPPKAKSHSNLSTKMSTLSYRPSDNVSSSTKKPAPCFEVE
The description is as above. It counts as biochemical.
Excerpt: as §1

Another data set concerns the target mu opioid receptor (Homo sapiens, UniProt P35372). Described as above. The class given is biochemical.
Excerpt: as §1

The target of a further data set is delta opioid receptor (Homo sapiens, UniProt P41143). The data set is described as above. The class given is biochemical.
Excerpt: as §1

The target of data set [6] is T4, CB1 receptor (Homo sapiens, UniProt P21554). Briefly: displacement of the ligand rimonabant from CB1 receptors. It counts as binding. Particulars: FIG. 2A.
Data set [7] has as its target T4, CB1 receptor. Particulars: literature; cited from earlier work.
Data set [8] concerns the target T4, CB1 receptor. It counts as biochemical. On the procedure: A test was then designed, the results of which are illustrated in FIG. 2B, to determine if hemopressin could block the signaling of CB1 receptor. […] Finally, a test was designed to measure whether hemopressin is capable of blocking the increase of levels of phosphorylated ERK1 and ERK2.
Hemopressin was also determined to not only act as an antagonist but as an inverse agonist of CB1 receptors. This was further explored by studying the binding of GTPgammaS, adenylate cyclase activity and MAP kinase phopshorylation. […] This can clearly be seen in FIGS. 3A-C.

In data set [9] the target is T4, CB1 receptor. It counts as biochemical. Conditions: for percentage of activity as compared to the control group: CB1. The source says: Next the selectivity of hemopressin for CB1 receptors was examined using antibodies sensitive to the conformations of mu and delta opiod receptors, alpha-2A and beta-2 adrenergic receptors, as well as type 1 and 2 Angiotensin II receptors.

Data set [10] addresses T4, CB1 receptor. Particulars: in vitro, Dodd et al.; cited from earlier work.
The next data set has as its system diet induced obese rats. Briefly: insulin sensitivity in diet induced obese rats. It counts as in vivo, rat. Conditions: 50 micrograms/Kg and 1 mg/Kg hemopressin, FIG. 6.
For data set [11], the system named is rats. The data set is described as follows: standard swimming test for depression. The class given is in vivo, rat. Conditions: hemopressin 1 mg/Kg, FIG. 5.
The subject of another data set is rats and mice. Particulars: Dodd et al., cited from earlier work.
The conditions of data set [12]: cited from earlier work.
For the next data set, the system named is rodents and humans. Conditions: literature; cited from earlier work.

T4 sequence (P21554 whole entry): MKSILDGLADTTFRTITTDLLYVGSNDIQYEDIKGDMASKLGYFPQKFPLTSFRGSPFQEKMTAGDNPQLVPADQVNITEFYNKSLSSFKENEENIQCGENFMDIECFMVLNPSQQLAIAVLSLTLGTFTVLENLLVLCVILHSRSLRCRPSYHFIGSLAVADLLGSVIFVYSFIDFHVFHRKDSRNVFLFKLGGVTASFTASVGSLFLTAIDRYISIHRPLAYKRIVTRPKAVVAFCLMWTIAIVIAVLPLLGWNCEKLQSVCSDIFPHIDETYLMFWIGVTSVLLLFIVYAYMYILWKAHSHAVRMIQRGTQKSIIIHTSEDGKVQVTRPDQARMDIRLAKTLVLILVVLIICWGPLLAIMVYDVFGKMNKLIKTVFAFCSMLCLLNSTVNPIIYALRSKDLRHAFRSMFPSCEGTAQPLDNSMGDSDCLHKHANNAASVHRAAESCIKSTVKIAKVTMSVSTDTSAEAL
beta-2 adrenergic receptor, sequence (P07550 whole entry): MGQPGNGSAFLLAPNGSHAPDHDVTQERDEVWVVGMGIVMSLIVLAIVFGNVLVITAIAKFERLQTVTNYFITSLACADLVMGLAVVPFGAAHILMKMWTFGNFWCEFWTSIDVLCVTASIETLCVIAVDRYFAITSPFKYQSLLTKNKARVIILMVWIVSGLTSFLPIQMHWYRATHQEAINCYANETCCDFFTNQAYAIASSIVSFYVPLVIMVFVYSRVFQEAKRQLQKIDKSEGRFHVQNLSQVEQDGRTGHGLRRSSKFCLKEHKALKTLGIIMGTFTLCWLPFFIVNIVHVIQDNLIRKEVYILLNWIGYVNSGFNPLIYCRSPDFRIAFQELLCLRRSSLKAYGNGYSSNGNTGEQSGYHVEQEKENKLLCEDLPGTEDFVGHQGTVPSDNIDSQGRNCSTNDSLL
delta opioid receptor, sequence (P41143 whole entry): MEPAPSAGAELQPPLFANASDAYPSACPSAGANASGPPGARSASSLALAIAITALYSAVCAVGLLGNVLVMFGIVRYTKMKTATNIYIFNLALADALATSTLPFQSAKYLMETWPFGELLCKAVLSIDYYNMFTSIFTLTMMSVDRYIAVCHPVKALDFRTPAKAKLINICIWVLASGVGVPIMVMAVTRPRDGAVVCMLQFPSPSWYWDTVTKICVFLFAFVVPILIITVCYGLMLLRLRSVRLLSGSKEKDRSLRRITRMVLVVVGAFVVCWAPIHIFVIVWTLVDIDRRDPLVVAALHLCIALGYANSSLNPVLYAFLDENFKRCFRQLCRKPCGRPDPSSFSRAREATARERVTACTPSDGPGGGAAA
mu opioid receptor, sequence (P35372 whole entry): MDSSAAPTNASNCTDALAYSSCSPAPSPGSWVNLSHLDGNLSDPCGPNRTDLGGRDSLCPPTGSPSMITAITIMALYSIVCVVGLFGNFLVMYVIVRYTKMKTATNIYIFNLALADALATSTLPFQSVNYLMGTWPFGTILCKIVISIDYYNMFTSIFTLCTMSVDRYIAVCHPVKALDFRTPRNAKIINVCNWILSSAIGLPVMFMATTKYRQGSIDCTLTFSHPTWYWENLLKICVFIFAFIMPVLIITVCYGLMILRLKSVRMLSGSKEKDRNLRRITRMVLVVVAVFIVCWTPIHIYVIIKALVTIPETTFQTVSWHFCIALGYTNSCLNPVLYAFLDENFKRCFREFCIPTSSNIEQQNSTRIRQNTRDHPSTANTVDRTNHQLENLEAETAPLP

Turning to `CC(C)C[C@H](NC(=O)[C@H](Cc1ccccc1)NC(=O)[C@H](CCCCN)NC(=O)[C@H](Cc1ccccc1)NC(=O)[C@H](CC(N)=O)NC(=O)[C@@H](NC(=O)C1CCCN1)C(C)C)C(=O)N[C@@H](CO)C(=O)N[C@@H](Cc1cnc[nH]1)C(=O)O` (stereo partly drawn) [hemopressin], the retroperitoneal fat content entry in the data set on rats [1] was “significantly reduced by hemopressin only”. In the data set with rats [1], the “total body weight and periepididymal fat content” value was “significantly reduce”. Also, the “Body Weight (% of Control)” value with rats [1] is 96.89 ± 1.25 % of Control; with male Wistar rats (63-day ad libitum diet), 98.62 ± 13.33 % of Control. The “Periepididymal Adipose Tissue Weight” value is listed as 7.16 ± 1.36 g in the data set with rats [1] and 4.77 ± 1.06 g with male Wistar rats (63-day ad libitum diet). Further, the figures for the “Retroperitoneal Adipose Tissue Weight” value in the data set on rats [1] and with male Wistar rats (63-day ad libitum diet) were 6.26 ± 1.62 g and 6.12 ± 2.09 g, respectively. The “Visceral Adipose Tissue Weight” value in the data set on rats [1] came to 4.31 ± 0.61 g; in the data set with male Wistar rats (63-day ad libitum diet) it was 2.77 ± 0.58 g. Further, the “periepididymal and visceral fat content compared to saline control” value in the data set with male Wistar rats is “significantly reduced periepididymal and visceral fat content”. The “growth of neurites as measured against agonists” value with 2A neural cells is “efficiently blocks the growth of neurites”. Further, the “basal growth of neurites” value in the data set on 2A neural cells is “capable of decreasing the basal growth of neurites”. Further, the “percentage of activity as compared to the control group” value (“percentage of activity” below) in data set [2] (agonist and HP together) is 130.05 ± 7.06%; in data set [2] (hemopressin alone), 102.72 ± 2.00%; in data set [3] (agonist and HP together), 157.40 ± 8.15%; in [3] (hemopressin alone), 103.85 ± 9.29%; in data set [4] (agonist and HP together), 137.10 ± 1.91%; in data set [4] (hemopressin alone), 99.65 ± 4.71%. The “percentage of activity” value came to 140.01 ± 1.21% in [5] (agonist and HP together); 109.65 ± 1.31% in data set [5] (hemopressin alone); 141.09 ± 6.46% at mu opioid receptor (agonist and HP together); 105.62 ± 1.09% at mu opioid receptor (hemopressin alone); 131.08 ± 3.35% at delta opioid receptor (agonist and HP together); 100.65 ± 4.29% at delta opioid receptor (hemopressin alone). Further, the “percentage of activity” value at CB1 receptor [9] (agonist and HP together) was 102.06 ± 5.91%; on CB1 receptor [9] (hemopressin alone), 72.30 ± 3.32%. Further, on CB1 receptor [6], the “displacement of rimonabant from CB1 receptors” value is reported as “capable of displacing rimonabant from CB1 receptors”. The “action at the CB1 receptor” value at CB1 receptor [7] was “CB1 receptor inverse agonist”. Besides, the “block of the increase of GTPgammaS” value at CB1 receptor [8] is given as “capable of blocking the increase of GTPgammaS”. In addition, the “block of the increase of levels of phosphorylated ERK1 and ERK2” value on CB1 receptor [8] is on record as “behave similarly to rimonabant”. Also, the “block of decreases in cAMP levels” value at CB1 receptor [8] (against agonists, FIG. 2C) was “block decreases in cAMP levels with efficiency similar to that of rimonabant”. Further, at CB1 receptor [8] (without agonist, FIG. 3A), the “basal signaling, binding of GTPgammaS” value is given as “causes decreases in signaling below the basal levels”. On CB1 receptor [8] (without agonist, FIG. 3B), the “basal signaling, adenylate cyclase activity” value is “causes decreases in signaling below the basal levels”. For the same molecule, the “basal signaling, MAP kinase phosphorylation” value on CB1 receptor [8] (without agonist, FIG. 3C) is on record as “causes decreases in signaling below the basal levels”. Also, the “block of the HU-210 induced increase in the recognition of the antibody” value on CB1 receptor [9] was “significantly blocked”. For the same molecule, the “recognition of a CB1 specific antibody” value on CB1 receptor [9] (substance alone, FIG. 1A/1B) is listed as “decrease the recognition of a CB1 specific antibody”. For the same molecule, the “selectivity for CB1 receptors” value on CB1 receptor [9] (versus mu and delta opioid, alpha-2A, beta-2, AT1, AT2 receptors) is recorded as “highly selective for CB1 receptors”. At CB1 receptor [10], the “CB1 agonist-induced internalization of the CB1 receptor” value is given as “antagonize CB1 agonist-induced internalization of the CB1 receptor in vitro”. Moreover, the insulin sensitivity entry in the data set with diet induced obese rats is listed as “significantly improved insulin sensitivity”. In addition, the “symptoms of depression in standard swimming test” value with rats [11] is listed as “showed no such symptoms”. Moreover, the food intake entry was “induce hypophagia in vivo when administered centrally” in the data set with rats and mice (administered centrally); “induce hypophagia in vivo when administered systemically” in the data set with rats and mice (administered systemically). The antinociceptive effects result in data set [12] (Dale et al., literature) was “nonopioid antinociceptive effects”. For the same molecule, the treatment of hyperalgesia result in [12] (administered locally or systemically, Heimann et al.) is “effective in treating hyperalgesia”.
As for “VDPENFRLLGNM (listed as Rattus sp.) [non-cannabinoid peptide, reference compound]”, in the data set on rats [1], the fat content entry was “no effect”, the “Body Weight (% of Control)” value is recorded as 100.65 ± 8.07 % of Control, the “Periepididymal Adipose Tissue Weight” value is listed as 9.38 ± 0.95 g and the “Retroperitoneal Adipose Tissue Weight” value was 8.80 ± 1.15 g. The “Visceral Adipose Tissue Weight” value with rats [1] was determined as 4.81 ± 1.25 g.
`Cc1c(C(=O)NN2CCCCC2)nn(-c2ccc(Cl)cc2Cl)c1-c1ccc(Cl)cc1` [rimonabant, reference compound]: in the data set on rats [1], the “Body Weight (% of Control)” value is 98.92 ± 0.95 % of Control, the “Periepididymal Adipose Tissue Weight” value is 5.57 ± 1.03 g, the “Retroperitoneal Adipose Tissue Weight” value is recorded as 6.89 ± 1.31 g and the “Visceral Adipose Tissue Weight” value turned out to be 3.91 ± 0.78 g. In the data set with 2A neural cells, the “growth of neurites as measured against agonists” value was “efficiently blocks the growth of neurites”. Also, in the data set with rodents and humans, the weight reduction result was “weight-reducing effects over extended periods”. Moreover, the insulin sensitivity result with diet induced obese rats is “did not produce similar results”. Also, the “symptoms of depression in standard swimming test” value in the data set on rats [11] is reported as “caused the expected depression”.
Turning to `CCCCCCC(C)(C)c1cc(O)c2c(c1)OC(C)(C)[C@@H]1CC=C(CO)C[C@@H]21` [HU-210, reference compound], the “basal growth of neurites” value in the data set on 2A neural cells is “induction of the growth of neurites”. For the same molecule, the “recognition of a CB1 specific antibody” value on CB1 receptor [9] is “increase”.
